Assay results published in patent US20060247303A1, “7H-dibenzo[b,g][1,5]dioxocin-5-one derivatives and use thereof” (BAYER HEALTHCARE AG, priority 2002, published 2006).

target: T1, CETP (Homo sapiens, UniProt P11597); assay: CETP fluorescence test; type: biochemical; conditions: CETP from human plasma, transfer of fluorescent cholesterol ester between liposomes, 37° C., 4 hours; read-out: IC50 [nM] Fluor. test
T1 construct: enriched CETP fraction, obtained from human plasma by means of hydrophobic chromatography; from tissue; host or cells: human plasma
T1 sequence (P11597 18-493): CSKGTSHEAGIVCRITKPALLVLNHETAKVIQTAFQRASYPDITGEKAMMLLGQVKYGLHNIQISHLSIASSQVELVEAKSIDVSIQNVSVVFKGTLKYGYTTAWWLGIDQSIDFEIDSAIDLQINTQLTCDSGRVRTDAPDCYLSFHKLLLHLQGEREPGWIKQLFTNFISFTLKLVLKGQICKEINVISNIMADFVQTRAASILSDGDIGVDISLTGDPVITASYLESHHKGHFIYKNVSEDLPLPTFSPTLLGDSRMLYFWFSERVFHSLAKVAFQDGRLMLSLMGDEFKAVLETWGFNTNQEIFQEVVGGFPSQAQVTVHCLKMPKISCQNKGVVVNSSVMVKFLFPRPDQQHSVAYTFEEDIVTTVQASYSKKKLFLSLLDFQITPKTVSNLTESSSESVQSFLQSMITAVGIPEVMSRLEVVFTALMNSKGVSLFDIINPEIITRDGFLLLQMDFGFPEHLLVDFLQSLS
Experimental: CETP is obtained in partially purified form from human plasma by differential centrifugation and column chromatography and used for the test. To this end, human plasma is adjusted to a density of 1.21 g per ml using NaBr and centrifuged at 4° C. at 50 000 rpm for 18 h. The bottom fraction (d>1.21 g/ml) is applied to a Sephadex® Phenyl-Sepharose 4B (Pharmacia) column, washed with 0.15 M NaCl/0.001 M tris HCl pH 7.4 and then eluted with distilled water. The CETP-active fractions are pooled, dialysed against 50 mM sodium acetate pH 4.5 and applied to a CM-Sepharose® column (Pharmacia). The mixture is then eluted using a linear gradient (0-1 M NaCl). The pooled CETP fractions are dialysed against 10 mM Tris HCl pH 7.4 and then further purified by chromatography on a Mono Q® column (Pharmacia).
Measurement of the CETP-catalysed transfer of a fluorescent cholesterol ester between liposomes—modified according to the procedure of Bisgaier et al., J. Lipid Res. 34, 1625 (1993):
For the production of the donor liposomes, 1 mg of cholesteryl 4,4-difluoro-5,7-dimethyl-4-bora-3a,4a-diaza-s-indacene-3-dodecanoate (cholesteryl BODIPY® FL C12, Molecular Probes) is dissolved in 600 μl of dioxane with 5.35 mg of triolein and 6.67 mg of phosphatidylcholine with gentle warming in an ultrasonic bath and this solution is added very slowly with ultrasonication to 63 ml of 50 mM tris/HCl, 150 mM NaCl, 2 mM EDTA buffer pH 7.3 at RT.
The suspension is then ultrasonicated under an N2 atmosphere for 30 minutes in the Braukson ultrasonic bath at about 50 watts, the temperature being kept at about 20° C.
The acceptor liposomes are obtained analogously from 86 mg of cholesteryl oleate, 20 mg of triolein and 100 mg of phosphatidylcholine dissolved in 1.2 ml of dioxane and 114 ml of above buffer by ultrasonication at 50 watts (20° C.) for 30 minutes.
For testing, a test mix consisting of 1 part of above buffer, 1 part of donor liposomes and 2 parts of acceptor liposomes is used.
80 μl of test mix are treated with 1-3 μg of enriched CETP fraction, obtained from human plasma by means of hydrophobic chromatography, and 2 μl of the substance to be investigated in DMSO and incubated at 37° C. for 4 hours.
The change in the fluorescence at 485/535 nm is a measure of the CE transfer; the inhibition of the transfer in comparison to the control batch without substance is determined.

Row | Structure (SMILES) | IC50 [nM]
1 | COc1c([C@@H](O)CC(C)C)ccc2c1C(=O)OCc1c(Br)c(C)c(Br)c(OCCCC(F)(F)F)c1O2 [Example B-1, 8,10-Dibromo-3-[(1S)-1-hydroxy-3-methylbutyl]-4-methoxy-9-methyl-11-(4,4,4-trifluorobutoxy)-5H,7H-dibenzo[b,g][1,5]dioxocin-5-one] | 1000
2 | COc1c([C@@H](O)CC(C)C)ccc2c1C(=O)OCc1cc(C)cc(OC(=O)C3(C)CC3(F)F)c1O2 (some centres unmarked) [Example B-22] | 700
3 | COc1c([C@@H](O)CC(C)C)ccc2c1C(=O)OCc1c(Cl)c(C)cc(OC(=O)C(C)(C)CF)c1O2 [Example B-42] | 300
4 | COc1c([C@@H](O)CC(C)C)ccc2c1C(=O)OC(C)c1cc(C)cc(OCCC(C)C)c1O2 (mixture of isomers) [Example A-80, [(1S)-1-Hydroxy-3-methylbutyl]-11-(isopentyloxy)-4-methoxy-7,9-dimethyl-5H,7H-dibenzo[b,g][1,5]dioxocin-5-one] | 5000
5 | COc1c(C(O)CC(C)(C)C)ccc2c1C(=O)OCc1cc(C)cc(OCCC(C)C)c1O2 (centres unmarked) [Example A-55, 3-(1-Hydroxy-3,3-dimethylbutyl)-11-(isopentyloxy)-4-methoxy-9-methyl-5H,7H-dibenzo[b,g][1,5]dioxocin-5-one] | 1500
6 | COc1c(C(O)CC(C)C)ccc2c1C(=O)OCc1c(F)c(C)cc(OCCC(C)C)c1O2 (centres unmarked) [Example A-64] | 500
7 | COc1c([C@@H](O)CC(C)C)ccc2c1C(=O)OCc1c(C)c(C)c(C)c(OC(=O)C(C)(C)C)c1O2 [Example A-35] | 200
8 | COc1c(C(O)CC(C)C)ccc2c1C(=O)OCc1cc(C)cc(CCC3CCCC3)c1O2 (centres unmarked) [Example A-70, 11-(2-Cyclopentylethan-1-yl)-3-(1-hydroxy-3-methylbutyl)-4-methoxy-9-methyl-5H,7H-dibenzo[b,g][1,5]dioxocin-5-one] | 2000
9 | COc1c([C@@H](O)CC(C)C)ccc2c1C(=O)OCc1cc(C)cc(OS(=O)(=O)C(C)C)c1O2 [Example A-42, 9-[(1S)-1-Hydroxy-3-methylbutyl]-8-methoxy-3-methyl-7-oxo-5H,7H-dibenzo[b,g]-[1,5]-dioxocin-1-yl 2-propanesulphonate] | 700
10 | COc1c(C(O)CC(C)C)ccc2c1C(=O)OCc1cc(C)cc(C#CCC(C)C)c1O2 (centres unmarked) [Example A-63] | 2000
11 | COc1c([C@@H](O)CC(C)C)ccc2c1C(=O)OCc1c(C#N)c(C)cc(OCCC(C)C)c1O2 [Example A-78, 9-[(1S)-1-Hydroxy-3-methylbutyl]-1-(isopentyloxy)-8-methoxy-3-methyl-7-oxo-5H,7H-dibenzo[b,g][1,5]dioxocin-4-carbonitrile] | 3000
12 | COc1c([C@@H](O)CC(C)C)ccc2c1C(=O)OCc1cc(C)cc(OC(=O)C3(c4cccc(F)c4)CCCCC3)c1O2 [Example B-8] | 1000
13 | COc1c([C@@H](O)CC(C)C)ccc2c1C(=O)OCc1cc(C)cc(OCC3CC4C=CC3C4)c1O2 (stereo partly drawn) [Example B-5, 3-[(1S)-1-Hydroxy-3-methylbutyl]-4-methoxy-9-methyl-11-(bicyclo[2.2.1]hept-5-en-2-ylmethoxy)-5H,7H-dibenzo[b,g][1,5]dioxocin-5-one] | 1500
14 | COc1c([C@@H](O)CC(C)C)ccc2c1C(=O)OCc1c(Cl)c(C)c(Cl)c(OC(=O)C(C)(C)C)c1O2 [Example A-47] | 200

Results, then the compound that gave them:

Row | IC50 [nM] | Structure (SMILES)
15 | 60 | COc1c([C@@H](O)CC(C)C)ccc2c1C(=O)OCc1c(C)c(C)c(C)c(OC(=O)C3(C)C4CCC3CC4)c1O2 (some centres unmarked) [Example C-82]
16 | 300 | COc1c([C@@H](O)CC(C)C)ccc2c1C(=O)OCc1c(Cl)c(C)c(Cl)c(OC(=O)N3CC4CCC(C3)O4)c1O2 [Example B-165]
17 | 40 | CCc1c(C)cc2c(c1OC(=O)[C@@]1(C)C[C@H]3CC[C@@H]1C3)Oc1ccc([C@@H](O)CC(C)C)c(OC)c1C(=O)OC2 [Example C-91]
18 | 70 | COc1c([C@@H](O)CC(C)C)ccc2c1C(=O)OCc1c(Br)c(C)c(Cl)c(OC(=O)[C@@]3(C)C[C@H]4CC[C@@H]3C4)c1O2 [Example C-21]
19 | 55 | COc1c(C(O)CC(C)C)ccc2c1C(=O)OCc1c(F)c(C)c(C)c(OC(=O)C3(C)C4CCC3CC4)c1O2 (centres unmarked) [Example C-128]
20 | 50 | COc1c([C@@H](O)CC(C)C)ccc2c1C(=O)OCc1c(Cl)c(C)c(C)c(OC(=O)[C@@]3(C)C[C@H]4CC[C@@H]3C4)c1O2 [Example C-47]
21 | 90 | COc1c([C@@H](O)CC(C)C)ccc2c1C(=O)OCc1c(Cl)c(C)c(Br)c(OC(=O)C3(C)CCCCC3)c1O2 [Example C-67]
22 | 60 | COc1c(C(O)CC(C)(C)C)ccc2c1C(=O)OCc1c(Cl)c(C)c(C3CC3)c(OC(=O)C3(C)C4CCC3CC4)c1O2 (centres unmarked) [Example C-62]
23 | 250 | COc1c([C@@H](O)CC(C)C)ccc2c1C(=O)OCc1c(Cl)c(C)c(Br)c(OC(=O)C3CCC3)c1O2 [Example B-50]
24 | 50 | COCc1c(C)c(Cl)c2c(c1OC(=O)C1(C)C3CCC1CC3)Oc1ccc([C@@H](O)CC(C)C)c(OC)c1C(=O)OC2 (some centres unmarked) [Example C-66]
25 | 50 | CCc1c(C)c(Cl)c2c(c1OC(=O)C1(C)C3CCC1CC3)Oc1ccc([C@@H](O)CC(C)C)c(OC)c1C(=O)OC2 (some centres unmarked) [Example C-65]
26 | 75 | COc1c([C@@H](O)CC(C)C)ccc2c1C(=O)OCc1cc(C)c(Cl)c(OC(=O)[C@@]3(C)C[C@H]4CC[C@@H]3C4)c1O2 [Example C-22]
27 | 100 | COc1c([C@@H](O)CC(C)C)ccc2c1C(=O)OC(C)c1cc(C)cc(OC(=O)C3(C)C4CCC3CC4)c1O2 (some centres unmarked) [Example C-120]
28 | 60 | COc1c([C@@H](O)CC(C)C)ccc2c1C(=O)OCc1c(Cl)c(C)c(Br)c(OC(=O)C3(C)C4CCC3CC4)c1O2 (some centres unmarked) [Example C-37]
29 | 5000 | COc1c([C@@H](O)CC(C)C)ccc2c1C(=O)OCc1cc(C(F)F)cc(OCCC(C)C)c1O2 [Example B-176, 9-(Difluoromethyl)-3-[(1S)-1-hydroxy-3-methylbutyl]-11-(isopentyloxy)-4-methoxy-5H,7H-dibenzo[b,g][1,5]dioxocin-5-one]
